This passage reports IC50 results from patent US11597706B2, “Compounds and compositions for treating conditions associated with NLRP activity” (Novartis AG, priority 2016, dated 2023).

Some results are limits rather than exact numbers.

The test concerns the target T1, hNLRP3 (THP-1, IL-1β) (Homo sapiens, UniProt Q96P20).
T1 construct: THP-1 cells were purchased from the American Type Culture Collection; host or cells: THP-1 cells, PMA-differentiated, stimulated with gramicidin
The experiment in a line: IL-1β production in PMA-differentiated THP-1 cells stimulated with gramicidin. It counts as cell-based. To be noted: IL-1β readout. As to the method:
IL-1β Production in PMA-Differentiated THP-1 Cells Stimulated With Gramicidin.
Cell culture-THP-1 cells were purchased from the American Type Culture Collection and sub-cultured according to instructions from the supplier. Prior to experiments, cells were cultured in RPMI 1640 containing 10% heat inactivated FBS, penicillin (100 units/ml) and streptomycin (100 μg/ml), and maintained in log phase prior to experimental setup. Prior to the experiment THP-1 were treated with PMA (Phorbol 12-myristate 13-acetate) (10 μg/ml) for 24 hours. The day of the experiment the media was removed and attaching cells were treated with trypsin for 2 minutes, cells were then collected, washed with PBS (phosphate buffer saline), spin down, resuspended in 2% heat inactivated FBS with RPMI at a concentration of 1×10^6 cells/ml, and 100 μl was plated in a 96 well plate. Cells were incubated with compounds for 1 hours and then stimulated with Gramicidin (5 μM) (Enzo) for 2 hours. Cell free supernatant was collected and the production of IL-1β was evaluated by ELISA. Compounds were dissolved in dimethyl sulfoxide (DMSO) and added to the culture medium to achieve desired concentration (e.g. 100, 30, 10, 3, 1, 0.3 or 0.1 μM). A vehicle only control was run concurrently with each experiment. Final DMSO concentration was 1%.
THP-1 cells were purchased from the American Type Culture Collection and sub-cultured according to instructions from the supplier. Prior to experiments, cells were cultured in complete RPMI 1640 (containing 10% heat inactivated FBS, penicillin (100 units/ml) and streptomycin (100 μg/ml)), and maintained in log phase prior to experimental setup. Prior to the experiment THP-1 were treated with PMA (Phorbol 12-myristate 13-acetate) (20 ng/ml) for 16-18 hours. On the day of the experiment the media was removed and adherent cells were detached with trypsin for 5 minutes. Cells were then harvested, washed with complete RPMI 1640, spun down, resuspended in RPMI 1640 (containing 2% heat inactivated FBS, penicillin (100 units/ml) and streptomycin (100 μg/ml). The cells were plated in a 384-well plate at a density of 50,000 cells/well (final assay volume 50 μl). Compounds were dissolved in dimethyl sulfoxide (DMSO) and added to the culture medium to achieve desired concentration (e.g. 100, 33, 11, 3.7, 1.2, 0.41, 0.14, 0.046, 0.015, 0.0051, 0.0017 μM). Cells were incubated with compounds for 1 hour and then stimulated with gramicidin (5 μM) (Enzo) for 2 hours. Cell free supernatant was collected and the production of IL-1β was evaluated by HTRF (cisbio). A vehicle only control was run concurrently with each experiment. Final DMSO concentration was 0.38%.

T1 sequence (Q96P20 whole entry): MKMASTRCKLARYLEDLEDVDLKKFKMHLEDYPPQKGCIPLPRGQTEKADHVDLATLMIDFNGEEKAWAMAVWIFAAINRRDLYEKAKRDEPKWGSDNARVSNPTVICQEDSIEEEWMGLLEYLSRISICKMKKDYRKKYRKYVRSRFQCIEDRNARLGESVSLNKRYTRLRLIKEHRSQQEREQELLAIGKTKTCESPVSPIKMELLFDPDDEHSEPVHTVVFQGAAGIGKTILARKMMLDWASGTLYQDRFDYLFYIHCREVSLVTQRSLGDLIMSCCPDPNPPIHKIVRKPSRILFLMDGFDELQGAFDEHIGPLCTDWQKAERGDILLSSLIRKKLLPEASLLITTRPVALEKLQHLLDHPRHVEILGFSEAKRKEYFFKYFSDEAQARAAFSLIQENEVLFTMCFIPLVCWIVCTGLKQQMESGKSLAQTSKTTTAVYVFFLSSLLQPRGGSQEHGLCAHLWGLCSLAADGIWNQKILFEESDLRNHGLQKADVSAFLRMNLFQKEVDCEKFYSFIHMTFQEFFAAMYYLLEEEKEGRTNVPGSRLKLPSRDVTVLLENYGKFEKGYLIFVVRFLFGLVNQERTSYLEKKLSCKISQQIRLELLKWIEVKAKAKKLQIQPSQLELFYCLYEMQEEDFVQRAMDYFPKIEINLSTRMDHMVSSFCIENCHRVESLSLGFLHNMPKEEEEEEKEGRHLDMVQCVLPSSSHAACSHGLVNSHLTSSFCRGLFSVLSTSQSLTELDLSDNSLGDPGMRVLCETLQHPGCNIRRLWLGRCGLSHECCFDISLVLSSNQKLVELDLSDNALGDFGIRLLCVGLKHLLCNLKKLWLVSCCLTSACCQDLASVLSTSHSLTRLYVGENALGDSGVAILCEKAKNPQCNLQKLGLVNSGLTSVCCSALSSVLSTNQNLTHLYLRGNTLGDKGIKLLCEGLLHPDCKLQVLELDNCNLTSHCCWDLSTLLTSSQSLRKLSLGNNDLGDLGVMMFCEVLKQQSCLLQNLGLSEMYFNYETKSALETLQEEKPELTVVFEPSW

As usually defined, the IC50 is the concentration that inhibits the measured activity by half. Consider `CC(C)(O)c1ccc(S(=O)(=O)NC(=O)Nc2c3c(cc4c2CCC4)CCC3)cc1CO` [Compound 163, N-(1,2,3,5,6,7-hexahydro-sindacen-4-ylcarbamoyl)-3-(hydroxymethyl)-4-(2-hydroxypropan-2-yl)benzenesulfonamide], for which the IC50 (Table 2, gramicidin 5 μM) is below 1 µM.

For the setting “Table 1, gramicidin 5 μM”, `CC(C)c1cc(F)cc(C(C)C)c1NC(=O)NS(=O)(=O)c1cc(F)cc(C(C)(C)O)c1` [Compound 127, 3-fluoro-N-(4-fluoro-2,6-diisopropylphenylcarbamoyl)-5-(2-hydroxypropan-2-yl)benzenesulfonamide] yielded an IC50 below 1 µM.

Take `CC(C)c1cc(C#N)cc(C(C)C)c1NC(=O)NS(=O)(=O)c1ccc(C(C)(C)O)cc1` [Compound 168, N-(4-cyano-2,6-diisopropylphenylcarbamoyl)-4-(2-hydroxypropan-2-yl)benzenesulfonamide]: the IC50 (Table 2, gramicidin 5 μM) lay within 1 to 5 µM.

`COC(=O)c1cc(C(C)C)c(NC(=O)NS(=O)(=O)c2cccc(C(C)(C)O)c2)c(C(C)C)c1` [Compound 158, methyl 4-(3-(3-(2-hydroxypropan-2-yl)phenylsulfonyl)ureido)-3,5-diisopropylbenzoate] displayed an IC50 (Table 2, gramicidin 5 μM) of 5 to 15 µM.

On to `CC(C)c1cc(Cl)cc(C(C)C)c1NC(=O)NS(=O)(=O)c1cc(C#N)cc(C(C)(C)O)c1` [Compound 145, N-(4-chloro-2,6-diisopropylphenylcarbamoyl)-3-cyano-5-(2-hydroxypropan-2-yl)benzenesulfonamide], for which the IC50 (Table 2, gramicidin 5 μM) is below 1 µM.

As to `CC(C)c1cc(C#N)cc(C(C)C)c1NC(=O)NS(=O)(=O)c1cc(F)cc(C(C)(C)O)c1` [Compound 126], the IC50 (Table 1, gramicidin 5 μM) was below 1 µM.

Under “Table 2, gramicidin 5 μM”, `CC(C)c1cc(Cl)cc(C(C)C)c1NC(=O)NS(=O)(=O)c1cc(F)cc(C(C)(C)O)c1` [Compound 150, N-(4-chloro-2,6-diisopropylphenylcarbamoyl)-3-fluoro-5-(2-hydroxypropan-2-yl)benzenesulfonamide] registered an IC50 of 1 to 5 µM.

For the setting “Table 2, gramicidin 5 μM”, `CC(C)c1ccc(F)c(C(C)C)c1NC(=O)NS(=O)(=O)c1cccc(C(C)(C)O)c1` [Compound 141, N-(3-fluoro-2,6-diisopropylphenylcarbamoyl)-3-(2-hydroxypropan-2-yl)benzenesulfonamide] came in with an IC50 below 1 µM.

For the molecule `CC(C)(O)c1cc(C#N)cc(S(=O)(=O)NC(=O)Nc2c3c(c(Cl)c4c2CCC4)CCC3)c1` [Compound 110, N-(8-chloro-1,2,3,5,6,7-hexahydros-indacen-4-ylcarbamoyl)-3-cyano-5-(2-hydroxypropan-2-yl)benzenesulfonamide], the IC50 (Table 1, gramicidin 5 μM) is below 1 µM.

As to `CC(C)c1ccc(F)c(C(C)C)c1NC(=O)NS(=O)(=O)c1cc(F)cc(C(C)(C)O)c1` [Compound 144, 3-fluoro-N-(3-fluoro-2,6-diisopropylphenylcarbamoyl)-5-(2-hydroxypropan-2-yl)benzenesulfonamide], the IC50 (Table 2, gramicidin 5 μM) was below 1 µM.

`CC(C)c1ccc(F)c(C(C)C)c1NC(=O)NS(=O)(=O)c1cc(Cl)cc(C(C)(C)O)c1` [Compound 137, 3-chloro-N-(3-fluoro-2,6-diisopropylphenylcarbamoyl)-5-(2-hydroxypropan-2-yl)benzenesulfonamide]: the IC50 (Table 2, gramicidin 5 μM) is below 1 µM.

On to `CC(C)c1cccc(C(C)C)c1NC(=O)NS(=O)(=O)c1cc(C#N)cc(C(C)(C)O)c1` [Compound 115, 3-cyano-N-(2,6-diisopropylphenylcarbamoyl)-5-(2-hydroxypropan-2-yl)benzenesulfonamide], for which the IC50 (Table 1, gramicidin 5 μM) is below 1 µM.

In turn, `CC(C)c1ccc(F)c(C(C)C)c1NC(=O)NS(=O)(=O)c1cc(C(C)(C)O)cc(C(C)(C)O)c1` [Compound 155, N-(3-fluoro-2,6-diisopropylphenylcarbamoyl)-3,5-bis(2-hydroxypropan-2-yl)benzenesulfonamide] yielded an IC50 (Table 2, gramicidin 5 μM) of 1 to 5 µM.

Molecule `CC(C)c1ccc(F)c(C(C)C)c1NC(=O)NS(=O)(=O)c1cc(-c2ccncc2)cc(C(C)(C)O)c1` [Compound 159, N-(3-fluoro-2,6-diisopropylphenylcarbamoyl)-3-(2-hydroxypropan-2-yl)-5-(pyridin-4-yl)benzenesulfonamide] showed a half-maximal inhibitory concentration (IC50) (Table 2, gramicidin 5 μM) of 5 to 15 µM.

In the case of `CC(C)c1cc(F)cc(C(C)C)c1NC(=O)NS(=O)(=O)c1ccc(C(C)(C)O)cc1` [Compound 165, N-(4-fluoro-2,6-diisopropylphenylcarbamoyl)-4-(2-hydroxypropan-2-yl)benzenesulfonamide], the IC50 (Table 2, gramicidin 5 μM) was below 1 µM.
